Data taken from patent US11000033B2, “Ketone or oxime compound, and herbicide” (NISSAN CHEMICAL CORPORATION, priority 2014, dated 2021).

What was measured:
Type in all cases: in vivo
[1] = system: Echinochloa oryzacola Vasing.; experiment: Test Example 1: herbicidal activity, application before weed generation in submerged conditions (symbol A); conditions: application herbicide amount 320 g/ha
In short: (§1)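 0–5 visual score, 3 wk post-application. Submerged pots, alluvial soil, water 4 cm; seeds sown mixed, rice at 2.5 leaves transplanted. Emulsion diluted to predetermined dose, applied to water surface at sowing. 25–30 °C greenhouse.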

Scirpus juncoides = experiment: Test Example 1: herbicidal activity, application before weed generation in submerged conditions (symbol B); conditions: application herbicide amount 320 g/ha
In short: as §1

Monochoria vaginalis = experiment: Test Example 1: herbicidal activity, application before weed generation in submerged conditions (symbol C); conditions: application herbicide amount 320 g/ha
In short: as §1

Cyperus difformis = experiment: Test Example 3: herbicidal effect by foliage application, Wagner pot (symbol E); conditions: application herbicide amount 320 g/ha, Table 24
In short: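 Plants sown in submerged alluvial soil (water depth 0.1–0.5 cm) in a 25–30 °C greenhouse and grown 14 days. An emulsion of the compound diluted in water to a set herbicide amount was sprayed uniformly on foliage. Effect on each plant scored 3 weeks after application.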

[2] = system: directly sowed rice plant; experiment: Test Example 3: effect on crop by foliage application, Wagner pot (symbol b); conditions: application herbicide amount 320 g/ha, Table 24
In short: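 Wagner pot (1/10000 are), alluvial soil, submerged 0.1–0.5 cm; sown E. crus-galli var. crus-galli, L. chinensis, C. difformis, rice; greenhouse 25–30 °C.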

[3] = system: Echinochloa crus-galli var. crus-galli; experiment: Test Example 4: herbicidal effect by soil treatment (symbol H); conditions: application herbicide amount 320 g/ha
In short: (§2)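 Seeds were sown in sterilized diluvial soil, covered with about 1.5 cm of soil, and the soil surface was sprayed with a water-diluted emulsion of the compound at a predetermined rate. Plants grew in a greenhouse at 25° C. to 30° C.; effects were scored visually 3 weeks after application.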

Amaranthus retroflexus [4] = experiment: Test Example 4: herbicidal effect by soil treatment (symbol N); conditions: application herbicide amount 320 g/ha
In short: as §2

Stellaria media = experiment: Test Example 4: herbicidal effect by soil treatment (symbol P); conditions: application herbicide amount 320 g/ha
In short: as §2

corn = experiment: Test Example 4: effect on crop by soil treatment (symbol c); conditions: application herbicide amount 320 g/ha
In short: (§3)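 Greenhouse culture at 25° C. to 30° C. followed sowing of seed in spots on sterilized diluvial soil with a soil cover close to 1.5 cm thick.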

rice = experiment: Test Example 4: effect on crop by soil treatment (symbol b); conditions: application herbicide amount 320 g/ha
In short: as §3

rapeseed [5] = experiment: Test Example 4: effect on crop by soil treatment (symbol g); conditions: application herbicide amount 320 g/ha
In short: as §3

Setaria viridis = experiment: Test Example 5: herbicidal effect by foliage application, plastic box (symbol G); conditions: 320 g/ha, 3 weeks after application
In short: (§4)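 Visual herbicidal score, taken three weeks post-application, of seedlings sprayed on the foliage with water-diluted emulsion at a predetermined amount; plants were 14 days old, greenhouse-raised at 25° C. to 30° C.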

[6] = system: Echinochloa crus-galli var. crus-galli; experiment: Test Example 5: herbicidal effect by foliage application, plastic box (symbol H); conditions: 320 g/ha, 3 weeks after application
In short: as §4

Amaranthus retroflexus [7] = experiment: Test Example 5: herbicidal effect by foliage application, plastic box (symbol N); conditions: 320 g/ha, 3 weeks after application
In short: as §4

beet = experiment: Test Example 5: effect on crop by foliage application, plastic box (symbol f); conditions: 320 g/ha, 3 weeks after application
In short: (§5)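 Crop and weed seeds sown in spots in sterilized diluvial soil in plastic boxes and covered with about 1.5 cm soil. Plants raised in a greenhouse at 25° C. to 30° C. for foliar application.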

rapeseed [8] = experiment: Test Example 5: effect on crop by foliage application, plastic box (symbol g); conditions: 320 g/ha, 3 weeks after application
In short: as §5

Row | SMILES | A (Echinochloa oryzacola Vasing.) herbicidal effect grade [1] | B (Scirpus juncoides) herbicidal effect grade (Scirpus juncoides) | C (Monochoria vaginalis) herbicidal effect grade (Monochoria vaginalis) | E herbicidal effect grade (Cyperus difformis) | b (directly sowed rice plant) effect on crop grade [2] | Herbicidal effect grade, H: Echinochloa crus-galli var. crus-galli [3] | Herbicidal effect grade, N: Amaranthus retroflexus (Amaranthus retroflexus [4]) | Herbicidal effect grade, P: Stellaria media (Stellaria media) | Effect on crop grade, c: corn (corn) | Effect on crop grade, b: directly sowed rice plant (rice) | Effect on crop grade, g: rapeseed (rapeseed [5]) | G: Setaria viridis, herbicidal effect grade (Setaria viridis) | H: Echinochloa crus-galli var. crus-galli, herbicidal effect grade [6] | N: Amaranthus retroflexus, herbicidal effect grade (Amaranthus retroflexus [7]) | f: beet, effect on crop grade (beet) | g: rapeseed, effect on crop grade (rapeseed [8])
1 | Cc1cc(-n2cc(Cl)cn2)cc(C)c1C1=C(O)CC(CC(=NOCC(F)(F)F)C(C)C)C1=O (centres unmarked) [9-014] | 5 (Herbicidal ratio of 90% or more (almost completely withered)) | 4 (Herbicidal ratio of 70% or higher and lower than 90%) | 2 (Herbicidal ratio of 20% or higher and lower than 40%) | 5 (Herbicidal ratio of 90% or more (almost completely withered)) | 5 (Herbicidal ratio of 90% or more (almost completely withered)) | 1 (Herbicidal ratio of 5% or higher and lower than 20%) | 0 (Herbicidal ratio of 5% or lower (almost no effect)) | 0 (Herbicidal ratio of 5% or lower (almost no effect)) | 0 (Herbicidal ratio of 5% or lower (almost no effect)) | 1 (Herbicidal ratio of 5% or higher and lower than 20%) | 0 (Herbicidal ratio of 5% or lower (almost no effect)) | 5 (Herbicidal ratio of 90% or more (almost completely withered)) | 5 (Herbicidal ratio of 90% or more (almost completely withered)) | 0 (Herbicidal ratio of 5% or lower (almost no effect)) | 0 (Herbicidal ratio of 5% or lower (almost no effect)) | 2 (Herbicidal ratio of 20% or higher and lower than 40%)
2 | CC#Cc1cc(C)c(C2=C(O)CC(CC(=NOCC(F)(F)F)C(C)C)C2=O)c(C)c1 (centres unmarked) [9-015] | 5 (Herbicidal ratio of 90% or more (almost completely withered)) | 5 (Herbicidal ratio of 90% or more (almost completely withered)) | 1 (Herbicidal ratio of 5% or higher and lower than 20%) | 5 (Herbicidal ratio of 90% or more (almost completely withered)) | 5 (Herbicidal ratio of 90% or more (almost completely withered)) | 5 (Herbicidal ratio of 90% or more (almost completely withered)) | 0 (Herbicidal ratio of 5% or lower (almost no effect)) | 0 (Herbicidal ratio of 5% or lower (almost no effect)) | 0 (Herbicidal ratio of 5% or lower (almost no effect)) | 5 (Herbicidal ratio of 90% or more (almost completely withered)) | 0 (Herbicidal ratio of 5% or lower (almost no effect)) | 5 (Herbicidal ratio of 90% or more (almost completely withered)) | 5 (Herbicidal ratio of 90% or more (almost completely withered)) | 0 (Herbicidal ratio of 5% or lower (almost no effect)) | 0 (Herbicidal ratio of 5% or lower (almost no effect)) | 5 (Herbicidal ratio of 90% or more (almost completely withered))
3 | COCCON=C(C)CC1CC(O)=C(c2c(C)cc(-n3cc(Cl)cn3)cc2C)C1=O (centres unmarked) [9-016] | 5 (Herbicidal ratio of 90% or more (almost completely withered)) | 5 (Herbicidal ratio of 90% or more (almost completely withered)) | 2 (Herbicidal ratio of 20% or higher and lower than 40%) | 5 (Herbicidal ratio of 90% or more (almost completely withered)) | 5 (Herbicidal ratio of 90% or more (almost completely withered)) | 5 (Herbicidal ratio of 90% or more (almost completely withered)) | 0 (Herbicidal ratio of 5% or lower (almost no effect)) | 0 (Herbicidal ratio of 5% or lower (almost no effect)) | 3 (Herbicidal ratio of 40% or higher and lower than 70%) | 5 (Herbicidal ratio of 90% or more (almost completely withered)) | 0 (Herbicidal ratio of 5% or lower (almost no effect)) | 5 (Herbicidal ratio of 90% or more (almost completely withered)) | 5 (Herbicidal ratio of 90% or more (almost completely withered)) | 0 (Herbicidal ratio of 5% or lower (almost no effect)) | 0 (Herbicidal ratio of 5% or lower (almost no effect)) | 3 (Herbicidal ratio of 40% or higher and lower than 70%)
4 | COCCON=C(CC1CC(O)=C(c2c(C)cc(Br)cc2C)C1=O)C1CC1 (centres unmarked) [9-019] | 4 (Herbicidal ratio of 70% or higher and lower than 90%) | 0 (Herbicidal ratio of 5% or lower (almost no effect)) | 0 (Herbicidal ratio of 5% or lower (almost no effect)) | 4 (Herbicidal ratio of 70% or higher and lower than 90%) | 5 (Herbicidal ratio of 90% or more (almost completely withered)) | 0 (Herbicidal ratio of 5% or lower (almost no effect)) | 0 (Herbicidal ratio of 5% or lower (almost no effect)) | 0 (Herbicidal ratio of 5% or lower (almost no effect)) | 0 (Herbicidal ratio of 5% or lower (almost no effect)) | 5 (Herbicidal ratio of 90% or more (almost completely withered)) | 0 (Herbicidal ratio of 5% or lower (almost no effect)) | 5 (Herbicidal ratio of 90% or more (almost completely withered)) | 5 (Herbicidal ratio of 90% or more (almost completely withered)) | 0 (Herbicidal ratio of 5% or lower (almost no effect)) | 0 (Herbicidal ratio of 5% or lower (almost no effect)) | 1 (Herbicidal ratio of 5% or higher and lower than 20%)
5 | CC#Cc1cc(C)c(C2=C(O)CC(CC(=NOCCOC)C3CC3)C2=O)c(C)c1 (centres unmarked) [9-021] | 5 (Herbicidal ratio of 90% or more (almost completely withered)) | 5 (Herbicidal ratio of 90% or more (almost completely withered)) | 2 (Herbicidal ratio of 20% or higher and lower than 40%) | 5 (Herbicidal ratio of 90% or more (almost completely withered)) | 5 (Herbicidal ratio of 90% or more (almost completely withered)) | 5 (Herbicidal ratio of 90% or more (almost completely withered)) | 0 (Herbicidal ratio of 5% or lower (almost no effect)) | 0 (Herbicidal ratio of 5% or lower (almost no effect)) | 3 (Herbicidal ratio of 40% or higher and lower than 70%) | 5 (Herbicidal ratio of 90% or more (almost completely withered)) | 2 (Herbicidal ratio of 20% or higher and lower than 40%) | 5 (Herbicidal ratio of 90% or more (almost completely withered)) | 5 (Herbicidal ratio of 90% or more (almost completely withered)) | 2 (Herbicidal ratio of 20% or higher and lower than 40%) | 0 (Herbicidal ratio of 5% or lower (almost no effect)) | 4 (Herbicidal ratio of 70% or higher and lower than 90%)
